Data published in patent publication US8148387B2, “AKT and P70 S6 kinase inhibitors” (Eli Lilly and Company, priority 2008, dated 2012).

Tests used:
[1] = tested on: Phosphorylation of p70 S6K(T389); assay: p70 S6K/AKT In Vivo Target Inhibition, U87MG xenograft, p-p70 S6K; parameters: species or system athymic nude mice; settings: Mus musculus, U-87 MG, IV Dose 12.5 mpk, U87MG tumors
Experimental: U87MG human glioblastoma cells (5×106) are subcutaneously implanted into the flank of athymic nude mice in 0.2 mL of matrigel. Two weeks post-implantation, mice are dosed orally or parenterally according to a time course, single dose/single time point, or dose response protocol for the determination of TMED50 (threshold minimum effective dose). Tumors are flash frozen at harvest and blood is collected for the determination of parent compound plasma exposure and the calculation of TMEC50 (threshold minimum effective concentration) in the case of dose response studies. Tumors or tissues are pulverized in liquid N2 and lysed in 400 μL of XY Lysis Buffer (10 μg/mL Leupeptin, 10 μg/mL Trypsin-Chymotrypsin Inhibitor, 10 μg/mL Tosyl phenyl-alanyl chloromethyl ketone, 10 μg/mL Aprotinin, 60 mM Beta-Glycerol Phosphate, 1% Triton X100, 25 mM Tris pH 7.5, 2.5 mM Pyrophosphate, 150 mM NaCl, 2 mM p-tosyl-L-arginine methyl ester, 15 mM para-nitrophenyl phosphate, 5 mM Benzamidine, 1 mM Na Vanadate, 10 mM NaF, 50 μg/mL phenyl-methane sulfonyl fluoride, 1 mM 1,4-Dithiothreitol (DTT), 15 mM EDTA pH 8.0, 5 mM EGTA pH 8.0, 1 μM Microcystin, 1 μM Okadaic Acid, and 1 Roche Complete protease inhibitor mini-tablet per 10 mL) using Lysing Matrix D tubes (MP Biomedicals, Solon, Ohio, cat#6913-500) and a BIO101 Thermo Savant Fast Prep FP12. Lysates are aliquoted and either assayed immediately or stored at −80° C. for later testing. In Vivo Target Inhibition of p70 S6K and AKT is measured utilizing Meso Scale Discovery (Gaithersburg, Md.) ELISA technology to assess effects on phosphorylation of the serine 240/244 site of the downstream effector S6RP. Phosphorylation of p70 S6K(T389), AKT(5473) and GSK3β(S9) is also assessed using this technology in a multiplex format. In summary, 20 μg of lysate is added to carbon electrode containing 96-well plates pre-spotted with the appropriate capture antibodies. The protein of interest is probed using a ruthenium labeled detection antibody. Upon the passage of current over the electrode in the presence of read buffer containing the co-reactant TPA, electro-chemiluminescence results in the generation of light which is quantified and recorded using the MSD Sector 6000 instrument. For each study, percent inhibitions are calculated relative to the vehicle control group and ANOVA analysis is performed using the JMP software package for the determination of statistical significance.

[2] = tested on: phosphorylated S6 ribosomal protein serine 240/244 (pS6); assay: AlphaScreen SureFire detection of pS6 in U87MG cells; type: cell-based; settings: Homo sapiens, U-87 MG, 1 hour
Experimental: The effect of compounds on the formation of endogenous phosphorylated S6 ribosomal protein serine 240/244 (pS6) and phosphorylated GSK3β serine 9 (pGSK3β) are measured using the AlphaScreen SureFire® for either pS6 (TGR Biosciences, TGRS6P2S10K) or pGSK3β(TGRGBS10K). This is a homogeneous assay format using immuno-sandwich capture of the phosphorylated analyte followed by detection using antibody-coated Alphascreen beads to generate an amplified signal.
U87MG cells are maintained in U87MG growth medium consisting of DMEM supplemented with 10% Fetal bovine serum (FBS), 1% Nonessential amino acids and 1% sodium pyruvate. For the assay, cells are harvested by standard procedures and then counted using Vi-Cell. Cells (50,000/well) are plated in 100 μL of U87MG growth medium into Costar #3596 96 well plates. […]
On the day of the assay, cells are treated with 20 μL/well compound diluted in media containing 6% DMSO. […] The plate is sealed with foil, incubated at RT for 4 hours with gentle shaking and then read on Perkin Elmer EnVision equipped with a TurboModule using standard AlphaScreen® settings (Ex680nm and Em520-620nm). The percent inhibition determined from controls on each plate and ten-point compound concentration data are then fit to a four-parameter logistic equation using ACTIVITYBASE 4.0 (Assay Guidance Manual Version 5.0, 2008, Eli Lilly and Company and NIH Chemical Genomics Center).

IC50 [2]: 65 nM
SMILES: CN(C)CCn1cc(-c2ccc(F)c(C(F)(F)F)c2)nc1C1CCN(c2ncnc3c2C(C)(C)C(=O)N3)CC1 [Example 31]
inhibition at 12.5 mg/kg ([1]; 1 hr post IV dose): 77.3%
inhibition at 12.5 mg/kg ([1]; 2 hr post IV dose): 76.1%
inhibition at 12.5 mg/kg ([1]; 4 hr post IV dose): 76.1%
inhibition at 12.5 mg/kg ([1]; 6 hr post IV dose): 76.1%
inhibition at 12.5 mg/kg ([1]; 8 hr post IV dose): 70.7%
inhibition at 12.5 mg/kg ([1]; 24 hr post IV dose): 61.6%
